In assay [1] the target is CDK12/CycK (Homo sapiens, UniProt Q9NYV4). Briefly: CDK12/CycK high ATP kinase assay (TR-FRET, 2 mM ATP). Format: biochemical. The conditions noted are these: 2 mM ATP (high ATP); median; read-out: CDK12/CyclinK, 2 mM ATP (high ATP), IC50-[mol/l] (median). An outline of the steps:
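Read-out is TR-FRET (Eu-anti-rabbit IgG, anti-phospho-c-Myc Ser62 antibody, streptavidin-XL665) after EDTA stop. Reaction ran 60 min at 22 °C using 1 µM biotin-peptide and high ATP (2 mM) with roughly 0.75 nM recombinant CDK12/CycK, after 15 min compound pre-binding; normalised emission ratios yield IC50.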

The subject of assay [2] is MDA-MB-231, human breast cancer cells. Briefly: Proliferation assay MDA-MB-231 (crystal violet, 4 days). Format: cell-based. The conditions noted are these: Homo sapiens, MDA-MB-231, 96 h, MDA-MB-231 cells, median, read-out: Prolif-MDA MB-231, IC50-[mol/l] (median). An outline of the steps:
(§1)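 IC50 from a 4-parameter fit of crystal violet absorbance (595 nm), scaled between a day-0 plate (0%) and untreated wells (100%). Cells grown in 10% FCS medium were exposed to test substances at 0.01-10 µmol/L for 4 days, 0.1% DMSO final.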

The test system of assay [3] is CAL-120, human breast adenocarcinoma cells. Briefly: Proliferation assay CAL-120 (crystal violet, 4 days). It counts as cell-based. The conditions noted are these: Homo sapiens, CAL-120, 96 h, CAL-120 cells, median, read-out: Prolif-CAL-120, IC50-[mol/l] (median). An outline of the steps: as §1
Assay [4] concerns the target T1, CDK12 (nuclear staining in CAL-120 cells) (Homo sapiens, UniProt Q9NYV4).
T1 construct: endogenous in cells; host or cells: CAL-120 human breast cancer cells (DSMZ ACC 459)
Briefly: CDK12 nuclear protein level: immunofluorescence/high content analysis (CAL-120). It counts as cell-based. The following applies: for DC50: CAL-120 cells, 24 h, immunofluorescence, 50% reduction of nuclear CDK12 staining intensity, median, read-out: CDK12 degradation IF, DC50- [mol/l] (median); for (IC50 CDK12 high ATP) to (Degradation DC50 CDK12) ratio: ratio of IC50 CDK12 high ATP kinase assay to DC50 CDK12 degradation (IF, CAL-120). An outline of the steps: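 DC50 is the degrader concentration that halves nuclear CDK12 immunofluorescence relative to controls, measured by high-content imaging. CAL-120 cells were exposed to compound for 24 h at 37 °C before PFA fixation, and signal was normalized to DMSO and control wells.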

Molecules are shown by their SMILES. A value given as a limit tells only on which side of the number the result lay.

T1 sequence (Q9NYV4 whole entry): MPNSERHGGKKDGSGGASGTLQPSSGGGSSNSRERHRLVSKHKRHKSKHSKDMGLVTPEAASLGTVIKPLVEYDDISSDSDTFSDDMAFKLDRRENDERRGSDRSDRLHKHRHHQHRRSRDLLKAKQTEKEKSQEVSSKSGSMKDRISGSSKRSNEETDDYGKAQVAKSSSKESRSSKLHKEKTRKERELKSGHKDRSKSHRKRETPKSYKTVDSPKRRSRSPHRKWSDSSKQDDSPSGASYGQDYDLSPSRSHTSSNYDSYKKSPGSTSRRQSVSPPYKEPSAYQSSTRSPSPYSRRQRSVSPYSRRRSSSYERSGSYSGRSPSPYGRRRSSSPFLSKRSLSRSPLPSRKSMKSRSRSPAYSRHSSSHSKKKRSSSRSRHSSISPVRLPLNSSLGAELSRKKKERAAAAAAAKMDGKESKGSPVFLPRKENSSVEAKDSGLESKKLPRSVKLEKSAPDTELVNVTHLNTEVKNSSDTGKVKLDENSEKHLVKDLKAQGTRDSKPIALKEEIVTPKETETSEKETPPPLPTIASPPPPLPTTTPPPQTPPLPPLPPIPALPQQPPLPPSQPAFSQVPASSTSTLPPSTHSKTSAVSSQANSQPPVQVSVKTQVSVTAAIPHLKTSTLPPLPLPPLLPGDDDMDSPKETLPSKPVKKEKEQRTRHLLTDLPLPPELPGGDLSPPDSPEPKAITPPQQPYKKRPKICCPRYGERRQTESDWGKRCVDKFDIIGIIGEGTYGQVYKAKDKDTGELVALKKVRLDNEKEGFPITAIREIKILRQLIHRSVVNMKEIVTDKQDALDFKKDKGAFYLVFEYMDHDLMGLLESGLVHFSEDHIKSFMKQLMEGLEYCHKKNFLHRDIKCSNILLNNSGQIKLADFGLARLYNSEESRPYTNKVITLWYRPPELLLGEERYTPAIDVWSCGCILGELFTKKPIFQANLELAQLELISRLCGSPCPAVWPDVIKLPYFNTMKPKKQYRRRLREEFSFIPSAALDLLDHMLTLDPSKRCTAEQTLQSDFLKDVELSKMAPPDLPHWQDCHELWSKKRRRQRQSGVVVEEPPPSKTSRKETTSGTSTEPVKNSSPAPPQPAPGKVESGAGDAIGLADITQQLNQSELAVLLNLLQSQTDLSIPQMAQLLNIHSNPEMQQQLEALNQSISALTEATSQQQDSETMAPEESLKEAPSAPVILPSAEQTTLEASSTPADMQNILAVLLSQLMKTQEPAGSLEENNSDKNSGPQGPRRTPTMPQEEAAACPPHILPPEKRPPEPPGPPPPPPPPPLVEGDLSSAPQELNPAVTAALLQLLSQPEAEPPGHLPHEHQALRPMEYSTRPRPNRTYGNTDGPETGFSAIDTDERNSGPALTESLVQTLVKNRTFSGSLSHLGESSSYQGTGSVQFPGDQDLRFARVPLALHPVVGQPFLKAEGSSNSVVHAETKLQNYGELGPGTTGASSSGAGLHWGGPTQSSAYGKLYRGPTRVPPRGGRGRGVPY
T1 sequence (O75909 whole entry partner): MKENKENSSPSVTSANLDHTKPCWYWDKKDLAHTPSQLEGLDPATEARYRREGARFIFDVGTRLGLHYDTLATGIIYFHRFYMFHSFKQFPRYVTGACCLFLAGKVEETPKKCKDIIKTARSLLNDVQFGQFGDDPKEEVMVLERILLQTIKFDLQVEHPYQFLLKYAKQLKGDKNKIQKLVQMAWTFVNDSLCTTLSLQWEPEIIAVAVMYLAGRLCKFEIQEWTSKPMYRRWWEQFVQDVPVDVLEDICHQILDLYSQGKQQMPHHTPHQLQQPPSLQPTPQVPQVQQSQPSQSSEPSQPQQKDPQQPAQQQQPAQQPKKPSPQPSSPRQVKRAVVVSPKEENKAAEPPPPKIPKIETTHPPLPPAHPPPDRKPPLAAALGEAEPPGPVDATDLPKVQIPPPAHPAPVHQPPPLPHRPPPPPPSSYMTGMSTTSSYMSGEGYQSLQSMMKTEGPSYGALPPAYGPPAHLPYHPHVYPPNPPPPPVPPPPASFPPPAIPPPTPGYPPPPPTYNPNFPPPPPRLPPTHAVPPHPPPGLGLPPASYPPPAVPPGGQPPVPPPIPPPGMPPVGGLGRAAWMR
Sequence of CDK12/CycK (Q9NYV4 with tags, fused parts or gaps): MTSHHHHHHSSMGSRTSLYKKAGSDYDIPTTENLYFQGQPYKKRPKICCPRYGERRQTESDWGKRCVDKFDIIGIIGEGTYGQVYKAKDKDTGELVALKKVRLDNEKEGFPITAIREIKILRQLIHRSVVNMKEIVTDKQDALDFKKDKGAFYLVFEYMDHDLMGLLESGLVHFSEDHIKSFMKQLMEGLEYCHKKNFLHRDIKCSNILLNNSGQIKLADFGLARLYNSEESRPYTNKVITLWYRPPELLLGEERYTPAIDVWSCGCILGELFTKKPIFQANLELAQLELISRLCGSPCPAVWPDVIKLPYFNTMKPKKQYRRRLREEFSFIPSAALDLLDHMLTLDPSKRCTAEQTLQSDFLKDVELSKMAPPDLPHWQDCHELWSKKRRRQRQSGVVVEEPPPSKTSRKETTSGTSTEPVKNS
Sequence of CDK12/CycK (O75909 1-300 partner limits assumed): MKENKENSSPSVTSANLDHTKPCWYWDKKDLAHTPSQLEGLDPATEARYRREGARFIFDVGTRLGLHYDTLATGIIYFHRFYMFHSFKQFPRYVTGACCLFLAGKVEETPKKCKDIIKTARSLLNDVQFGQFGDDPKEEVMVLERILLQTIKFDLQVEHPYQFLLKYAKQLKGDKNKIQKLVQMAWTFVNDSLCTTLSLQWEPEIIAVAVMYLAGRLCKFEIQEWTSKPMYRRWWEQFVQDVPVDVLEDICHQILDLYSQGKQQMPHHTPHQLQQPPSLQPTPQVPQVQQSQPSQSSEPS

`Cc1cnn2c(NCc3nc4ccccc4[nH]3)nc(N3CCOCC3)nc12` [Example 393, N-[(1H-benzimidazol-2-yl)methyl]-8-methyl-2-(morpholin-4-yl)pyrazolo[1,5-a][1,3,5]triazin-4-amine]: the results for the IC50 in assay [1], in assay [2] and in assay [3] were over 20 µM, 0.12 µM and 0.0468 µM, respectively. In addition, in assay [4], the DC50 turned out to be 0.0223 µM. Also, in assay [4], the “(IC50 CDK12 high ATP) to (Degradation DC50 CDK12) ratio” value is over 897.
Take `Brc1cnn2c(NCc3nc4ccccc4[nH]3)nc(OCC3CC3)nc12` [Example 408, N-[(1H-benzimidazol-2-yl)methyl]-8-bromo-2-(cyclopropylmethoxy)pyrazolo[1,5-a][1,3,5]triazin-4-amine]: the IC50 in assay [1] was over 20 µM; in assay [2], 0.741 µM; in assay [3], 0.252 µM. The DC50 in assay [4] was found to be 0.0568 µM. The “(IC50 CDK12 high ATP) to (Degradation DC50 CDK12) ratio” value in assay [4] is given as over 352.
For the compound `COc1cccc2nc(CNc3nc(N4CCOCC4)nc4c(-c5ccnnc5)cnn34)[nH]c12.O=C(O)C(F)(F)F` [Example 439, trifluoroacetic acid N-[(7-methoxy-1H-benzimidazol-2-yl)methyl]-2-(morpholin-4-yl)-8-(pyridazin-4-yl)pyrazolo[1,5-a][1,3,5]triazin-4-amine], the IC50 is 3.95 µM in assay [1], 0.18 µM in assay [2] and 0.0363 µM in assay [3]. The DC50 in assay [4] was found to be 0.00465 µM. Also, in assay [4], the “(IC50 CDK12 high ATP) to (Degradation DC50 CDK12) ratio” value amounted to 850.
The like results for `Cn1cc(-c2cnn3c(NCc4nc5c(F)c(F)ccc5[nH]4)nc(N4CCOCC4)nc23)cn1` [Example 418, N-[(4,5-difluoro-1H-benzimidazol-2-yl)methyl]-8-(1-methyl-1H-pyrazol-4-yl)-2-(morpholin-4-yl)pyrazolo[1,5-a][1,3,5]triazin-4-amine] were, in that order, over 20 µM, 0.246 µM, 0.0644 µM, 0.039 µM and over 513.
The like results for `CCc1cnn2c(NCc3nc4ccccc4[nH]3)nc(N3CCN(C)CC3)nc12` [Example 434, N-[(1H-benzimidazol-2-yl)methyl]-8-ethyl-2-(4-methylpiperazin-1-yl)pyrazolo[1,5-a][1,3,5] triazin-4-amine] were, in that order, over 17.6 µM, 0.0447 µM, 0.0102 µM, 0.005 µM and over 3530.
For the compound `Fc1cccc2[nH]c(CNc3nc(N4CCN5CCC4CC5)nc4c(C(F)(F)F)cnn34)nc12` [Example 410, 2-(1,4-diazabicyclo[3.2.2]nonan-4-yl)-N-[(4-fluoro-1H-benzimidazol-2-yl)methyl]-8-(trifluoromethyl)pyrazolo[1,5-a][1,3,5]triazin-4-amine], the figures for the IC50 in assay [1], in assay [2] and in assay [3] were 1.58 µM, 0.00827 µM and 0.00307 µM, respectively. In addition, in assay [4], the DC50 turned out to be 0.00119 µM. Moreover, in assay [4], the “(IC50 CDK12 high ATP) to (Degradation DC50 CDK12) ratio” value was 1336.
As to `FC(F)n1cc(-c2cnn3c(NCc4nc5ccccc5[nH]4)nc(N4CCOCC4)nc23)cn1` [Example 421, N-[(1H-benzimidazol-2-yl)methyl]-8-[1-(difluoromethyl)-1H-pyrazol-4-yl]-2-(morpholin-4-yl)pyrazolo[1,5-a][1,3,5]triazin-4-amine], the IC50 in assay [1] was found to be 8.58 µM; in assay [2] it was 0.0875 µM; in assay [3], 0.0383 µM. In addition, the DC50 in assay [4] was 0.0216 µM. Besides, the “(IC50 CDK12 high ATP) to (Degradation DC50 CDK12) ratio” value in assay [4] is 397.
The like results for `Cn1cc(-c2cnn3c(NCc4nc5cc(Cl)c(Cl)cc5[nH]4)nc(N4CCOCC4)nc23)cn1` [Example 419, N-[(5,6-dichloro-1H-benzimidazol-2-yl)methyl]-8-(1-methyl-1H-pyrazol-4-yl)-2-(morpholin-4-yl)pyrazolo[1,5-a][1,3,5]triazin-4-amine] were, in that order, over 20 µM, 0.228 µM, 0.0795 µM, 0.0387 µM and over 517.
